Data reported in patent publication US9493464B2, “Wee1 degradation inhibitors” (The Scripps Research Institute, priority 2012, dated 2016).
“And” between values parts separate entries of the source, which are not always exact repeats. Equal values may be shown once. Read-outs that look alike come from different tables or passages of the source.

Assays:
RXF393 (renal) = experiment: NCI Dose Growth Inhibition assay (NCI-60); format: cell-based; settings: Homo sapiens, RXF 393
Procedure: (§1) Table 3, below, illustrates the activity of some of the compounds of the present invention in the National Cancer Institute's Dose Growth Inhibition assay against several human tumor cell lines selected from the NCI-60 panel.
(§2) NCI-60 Cancer Cell Line Screening was performed by the National Cancer Institute, using the procedures described on their website (http://dtp.nci.nih.gov/branches/btb/ivelsp.html)

UACC-62 (melanoma) = experiment: NCI Dose Growth Inhibition assay (NCI-60); format: cell-based; settings: Homo sapiens
Procedure: as §1, §2

SNB-75 (CNS) = experiment: NCI Dose Growth Inhibition assay (NCI-60); format: cell-based; settings: Homo sapiens
Procedure: as §1, §2

COLO 205 (colon) = experiment: NCI Dose Growth Inhibition assay (NCI-60); format: cell-based; settings: Homo sapiens
Procedure: as §1, §2

MDA-MB-468 (breast) = experiment: NCI Dose Growth Inhibition assay (NCI-60); format: cell-based; settings: Homo sapiens
Procedure: as §1, §2

A498 (renal) = experiment: NCI Dose Growth Inhibition assay (NCI-60); format: cell-based; settings: Homo sapiens
Procedure: as §1, §2

CK1δ = CK1δ (Homo sapiens, UniProt P48730); experiment: In vitro kinase assay, CK1d, 32P-ATP filter binding (Reaction Biology Corporation); format: biochemical; settings: 10 μM ATP; read-out: CK1δ IC50
Chain of CK1δ (P48730 whole entry): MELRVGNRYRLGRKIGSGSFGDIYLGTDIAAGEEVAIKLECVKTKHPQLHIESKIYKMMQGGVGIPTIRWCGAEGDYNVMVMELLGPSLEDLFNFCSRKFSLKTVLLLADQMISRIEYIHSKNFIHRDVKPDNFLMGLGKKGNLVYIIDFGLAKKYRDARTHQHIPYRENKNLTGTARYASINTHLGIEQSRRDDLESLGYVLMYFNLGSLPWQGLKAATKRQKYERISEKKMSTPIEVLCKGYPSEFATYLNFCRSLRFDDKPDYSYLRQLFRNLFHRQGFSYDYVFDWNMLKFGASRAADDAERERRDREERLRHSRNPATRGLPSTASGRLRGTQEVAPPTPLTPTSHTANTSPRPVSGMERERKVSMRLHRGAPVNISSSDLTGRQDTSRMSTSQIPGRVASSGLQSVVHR
Procedure: Compounds were tested in 10-dose IC50 mode with 3-fold serial dilution starting at 50 μM. […] Reactions were carried out at 10 μM ATP. Average and standard deviations of reactions carried out in triplicate are shown.
In vitro kinase assay to detect CK1 or FLT3 activity: CK1 and FLT3 assays as well as complete kinase profile of 296 kinases was performed by Reaction Biology Corporation. For FLT3 20 μM final Abltide was used, sequence: [[…]]. For CK1 (all isoforms) 20 μM CK1 tide was used, sequence: [KRRRAL[pS]VASLPGL] in a standard kinase assay with ^32P-ATP and purified kinase. Incorporation of ^32P-ATP into the peptide was measured after a filter-binding assay. In-house CK1d inhibition assays were performed using a standard homogenous time-resolved fluorescence resonance energy transfer (TR-FRET) format in 50 mM Hepes, pH 7.0, 2.5 mM MgCl2, 0.1 mg/ml bovine serum albumin, 1 mM DL-dithiothreitol, 0.01% Triton X-100 (all from Sigma-Aldrich). Briefly, the CK1δ substrate (DEKTDDE, containing CK1 consensus sequence; 4 μL of a 500 nM stock solution) is labeled with a small Ulight acceptor dye (PerkinElmer). In the presence of 10 μL of 10 nM CK1δ, the Ulight peptide is phosphorylated at a single amino acid that is specifically recognized by a europium chelate (Eu)-labeled phosphospecific antibody. Assays were performed in the presence of 2 μL of compound at different (measured) concentrations, and reactions were stopped by adding 10 μL of 4 nM Eu-anti-p-Topo-IIa (PerkinElmer) in Lance Detection Buffer (Perkin Elmer). Upon excitation of the Eu-labeled antibody, energy is transferred to the acceptor dye resulting in the emission of detected light at 665 nm.

HEK-SW cells = experiment: Amyloid β 1-42 production (AlphaLISA); format: cell-based; settings: 1 μM; supernatant at 48 hours post plating; result in words
Procedure: HEK-SW cells, which artificially overexpress mutated APP (K670N/M671L), the so-called Swedish mutation, were cultured on D-MEM supplemented with 10% FBS. HEK-SW cells were kindly provided by laboratory of Dr. Dennis Selkoe. HEK-SW cells were plated in 96 well plates (10,000 cells/well) and at 24 hours post plating replaced media and started treatments. […] DAPT, N [(3,5-Difluorophenyl)acetyl]-L-alanyl-2-phenyl]glycine-1,1-dimethylethyl ester, is a known inhibitor of γ-secretase purchased from TOCRIS Bioscience (Ellisville, Mo., USA). Supernatant of cells were collected at 48 hours post plating and concentration of Amyloid β 1-42 (Aβ 1-42) measured by AlphaLISA method (PerkinElmer, Waltham, Mass., USA) following instructions from the company.

[1] = system: cerebellar granule cell progenitors (GCPs); experiment: In vitro proliferation of cerebellar granule cell progenitors (3H-thymidine uptake); format: cell-based, mouse; settings: 24 hours; result in words
Procedure: GCPs were incubated with DMSO, 5 μM D4476 (known CK1δ and CK1ε inhibitor), or 50 μM D4476 and processed for ^3H-thymidine incorporation after 24 hours. A representative experiment performed in triplicate is shown.

[2] = system: GCPs in organotypic cerebellar slices; experiment: Organotypic cerebellar slice GCP migration assay; format: cell-based, mice; settings: 500 nM, 48 hours; result in words
Excerpt: Cerebella from P7 mice were isolated and sliced using a vibratome. Subsequently, slices were electroporated with venus-GFP to visualize GCPs. […] Many GCPs migrate to the Purkinje cell layer in DMSO treated cells, but fewer do so in SR-653234 or SR-1277 treated slices. […] Phospho-Y15 Cdc2 is a measure of Wee1 activity. Skp-1 is used as a loading control.

For `O=[N+]([O-])c1cccc2[nH]c(CNc3nc(N4CCOCC4)nc4c3ncn4-c3ccsc3)nc12` [SR-1277], the GI50 (RXF393 (renal)) was less than 10 nM, the GI50 (UACC-62 (melanoma); UACC-62) was 14 nM and the GI50 (SNB-75 (CNS); SNB-75) was less than 10 nM. For the same molecule, the GI50 (COLO 205 (colon); COLO 205) was 15 nM, the GI50 (MDA-MB-468 (breast); MDA-MB-468) was less than 10 nM and the GI50 (A498 (renal); A498) was 17 nM. The IC50 (CK1δ) was 49 nM, the Aβ1-42 production (HEK-SW cells) was “inhibit Aβ1-42 production” and the “inhibition of GCP proliferation (3H-thymidine)” value [1] was “robust inhibition”. The “GCP migration to the Purkinje cell layer” value [2] was “fewer do so”.
Molecule `c1ccc2[nH]c(CNc3nc(N4CCOCC4)nc4c3ncn4-c3ccsc3)nc2c1` [SR-653234] has a GI50 (RXF393 (renal); RXF393 (renal), read-out: GI50) of 26 nM, a GI50 (UACC-62 (melanoma); UACC-62 (melanoma), read-out: GI50) of 68 nM and a GI50 (SNB-75 (CNS); SNB-75 (CNS), read-out: GI50) of 25 nM. For the same molecule, the GI50 (COLO 205 (colon); COLO 205 (colon), read-out: GI50) was 26 nM, the GI50 (MDA-MB-468 (breast); MDA-MB-468 (breast), read-out: GI50) was 16 nM and the GI50 (A498 (renal); A498 (renal), read-out: GI50) was 72 nM. The IC50 (CK1δ) was 161 nM and 540 nM, the Aβ1-42 production (HEK-SW cells) was “inhibit Aβ1-42 production” and the “inhibition of GCP proliferation (3H-thymidine)” value [1] was “robust inhibition”. The “GCP migration to the Purkinje cell layer” value [2] was “fewer do so”.
